Data from patent US7811816B2, “Isolated CD8 +T lymphocytes specifically cytotoxic for a disease causing target cell” (Ortho-McNeil Pharmaeutical, Inc., priority 2001, dated 2010).
Marks after values point to notes of the source that are not given here. Blank lines part the entries; values can stand above or below the sequence they belong to.

Legend:
[1] = test system: peptides loaded RMAS (K^b, D^b) cells; experiment: In vitro generation of IgE peptide specific CTLs, 51Cr release against peptide loaded RMAS cells; format: cell-based; conditions: naive mouse CD8 T cells, Drosophila APC with D^b, B7-1, ICAM-1; Day 9
Experimental: CD8^+ T cells were purified from lymph nodes of CBF1/J mice (FIGS. 2A, 2B and 2D) or from B6, interferon γ knock out mice (IFNγ^−/−) or perform (PF^−/−) knock out mice (FIG. 2C). The purified CD8 T cells were cultured with indicated IgE peptides presented by SC2 cells transfected with D^b MHC class I, B7-1 (CD80) and ICAM-1 (CD54) molecules. Low dose of recombinant IL-2 (20 units/ml) was added to the culture at Day 3 and every other day thereafter. On Day 9, CTL activity was measured against ^51Cr labeled RMAS cells loaded with or without indicated IgE peptides. In FIG. 2D, anti-D^b mAb (20 μg/ml) was added at the beginning of CTL assay.
(§1) CTL Assay: Epitope-bearing (target) cells are used as target cells in a ^51 Cr release assay. 5×10^6 target cells in RPMI medium containing 4% fetal calf serum, 1% HEPES buffer and 0.25% gentamycin are labeled at 37° C. for one hour with 0.1 mCi ^51Cr. Cells are washed four times and diluted to 10^5 cells/ml in RPMI with 10% fetal bovine serum (HyClone). In a 96-well microtiter plate, 100 μl effector CTLs and 100 μl peptide-loaded, ^51Cr-labeled target cells are combined at ratios of 100:1, 20:1 and 4:1 (effector: target). K562 cells are added at a ratio of 20:1 (K562) to reduce natural killer cell background lysis. Non-specific lysis is assessed using cells labeled with ^51Cr as described above, but not bearing the epitope cell line. Controls to measure spontaneous release and maximum release of ^51Cr are included in duplicate. After incubation at 37° C. for six hours, the plates are centrifuged and the supernatants counted to measure ^51Cr release. Percent specific lysis is calculated using the following equation: […]
The ability of these IgE peptides in eliciting CTL responses was evaluated in vitro. As previously described, Drosophila cells transfected with MHC class I plus B7-1 and ICAM-1 are potent antigen presenting cells (APC) in activation of resting naïve CD8 T cells in vitro. Resting naïve CD8 T cells were purified from mouse lymph nodes and cultured with peptide loaded Drosophila cells transfected with L^d or D^b plus B7-1 and ICAM-1 in the absence of cytokines. IL-2 (20units/ml) was added at Day 3 and every other day thereafter. The CTL activity towards peptides loaded RMAS (K^b, D^b) cells or RMAS-L^d cells were measured on Day 9.

D^b class I molecules = biological target: T1, D^b class I molecules (Mus musculus, UniProt P01899); experiment: MHC class I stabilization assay on TAP- RMAS cells (H-2^b), flow cytometry; format: binding; conditions: for Stabilization of MHC: D^b, ratio of fluorescence intensity (with peptide - without peptide)/without peptide; for Binding to / stabilization of D^b, in words: MHC class I stabilization assay, RMAS cells
T1 construct: Antigen-transporting deficient (TAP^−) RMAS cells (H-2^b); endogenous in cells; host or cells: RMA-S (TAP 2 deficient, H-2^b)
T1 sequence (P01899 25-362): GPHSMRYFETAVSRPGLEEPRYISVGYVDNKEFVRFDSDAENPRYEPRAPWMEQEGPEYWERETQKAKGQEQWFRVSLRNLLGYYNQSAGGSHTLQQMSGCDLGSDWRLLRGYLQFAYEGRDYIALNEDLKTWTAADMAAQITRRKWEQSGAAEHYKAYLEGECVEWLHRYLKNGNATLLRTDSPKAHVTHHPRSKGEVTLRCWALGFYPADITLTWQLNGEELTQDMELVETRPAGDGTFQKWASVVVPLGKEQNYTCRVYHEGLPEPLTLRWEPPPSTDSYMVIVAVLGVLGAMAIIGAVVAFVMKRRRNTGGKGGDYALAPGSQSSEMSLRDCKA
T1 sequence (P01887 21-119 partner): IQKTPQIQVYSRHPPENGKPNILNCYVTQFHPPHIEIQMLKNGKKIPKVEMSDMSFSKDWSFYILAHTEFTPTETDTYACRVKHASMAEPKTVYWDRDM
Experimental: (§2) TAP 2 deficient RMA.S cells (FIG. 11B) or L^d transfected RMA.S cells (FIG. 11A) were incubated with indicated concentration of peptides at 28° C. overnight and then incubated at 37° C. for two to four hours. The cells were harvested and stained with mAb specific for L^d (FIG. 11B) or for D^b (FIG. 11A) and analyzed with FACScan.
(§3) The binding capacity of these synthetic peptides to L^d and D^b class I molecules were tested in an MHC class I stabilization assay (Cai et al. (1996) supra). Antigen-transporting deficient (TAP^−) RMAS cells (H-2^b) or L^d transfected RMAS (RMAS-L^d) cells were cultured in the presence of a titrated concentration of peptides at 27° C. After overnight culturing at 27° C., these cells were further cultured for two hours at 37° C. and the surface expression of L^d or D^b on the cells were analyzed by flow cytometry. […] Of the five peptides predicted bind to D^b, only IgE44 binds Db strongly and two peptides, IgE16 and IgE125, bind D^b weakly. […] Thus, a total of six peptides were identified that bind to either L^d or D^b MHC class I molecules.

[2] = test system: T2 cells loaded with indicated peptides; experiment: CTL activity generated from PBMC of different donors with IgE peptides on transfected Drosophila cells, chromium release; format: cell-based, human; conditions: x: number of donor from whom anti-IgE CTL was generated; N: number of donor tested
Experimental: CD8 T cells were purified from individual donors and cultured with Drosophila cells transfected with HLA-A2, hB7-1, hB7-2, hICAM-1 and hLFA-3 molecules in the presence of indicated peptides. After being cultured for six days, low doses of hIL-2 was added to the culture and re-stimulated with peptides loaded autologous adherent cells for an additional seven days. The CTLs were then harvested and the specific killing activities were tested with ^51Cr labeled T2 cells that loaded with indicated peptides FIGS. 9A through 9D by a standard chromium release assay. [table]

L^d class I molecules = biological target: T2, L^d class I molecules (Mus musculus, UniProt P01897); experiment: MHC class I stabilization assay on L^d transfected RMAS cells, flow cytometry; format: binding; conditions: for Stabilization of MHC: L^d, ratio of fluorescence intensity (with peptide - without peptide)/without peptide; for Binding to L^d, in words: MHC class I stabilization assay, RMAS-L^d cells
T2 construct: expressed in transfected cells; host or cells: RMA-S (RMAS-L^d), TAP-deficient
T2 sequence (P01897 25-362): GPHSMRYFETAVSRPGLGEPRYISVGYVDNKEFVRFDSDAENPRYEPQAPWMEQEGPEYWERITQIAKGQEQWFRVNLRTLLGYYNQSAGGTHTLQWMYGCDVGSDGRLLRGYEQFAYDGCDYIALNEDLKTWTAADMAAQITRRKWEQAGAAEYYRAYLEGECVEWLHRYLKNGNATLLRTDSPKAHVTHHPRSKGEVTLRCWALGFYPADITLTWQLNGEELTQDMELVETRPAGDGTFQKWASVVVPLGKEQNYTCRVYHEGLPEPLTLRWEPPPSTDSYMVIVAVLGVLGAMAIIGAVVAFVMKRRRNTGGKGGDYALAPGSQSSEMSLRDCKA
T2 sequence (P01887 21-119 partner): T1 sequence (P01887 21-119 partner)
Experimental: as §2, §3

[3] = test system: peptides loaded RMAS-L^d cells; experiment: In vitro generation of IgE peptide specific CTLs, 51Cr release against peptide loaded RMAS-L^d cells; format: cell-based; conditions: naive mouse CD8 T cells, Drosophila APC with L^d, B7-1, ICAM-1; Day 9
Experimental: as §1
The ability of these IgE peptides in eliciting CTL responses was evaluated in vitro. […] The CTL activity towards peptides loaded RMAS (K^b, D^b) cells or RMAS-L^d cells were measured on Day 9.

Stabilization of MHC (D^b class I molecules): + (less than two-fold is scored as “+”)
Binding to / stabilization of D^b, in words (D^b class I molecules): weakly
Sequence: TASMTLGCL (Peptide antigen) [IgE 16]
Specific CTL activity induced by the peptide, D^b restricted [1]: No specific CTL activity

Stabilization of MHC (D^b class I molecules): + (less than two-fold is scored as “+”)
Binding to / stabilization of D^b, in words (D^b class I molecules): weakly
Sequence: GHILNDVSV (Peptide antigen) [IgE 125]
Specific CTL activity induced by the peptide, D^b restricted [1]: No specific CTL activity

Sequence: YATISLLTV (Peptide antigen) [IgE 890]
Specific Killing (x/N) [2]: 4/5

Binding to L^d, in words (L^d class I molecules): strongly
Sequence: KPCKGTASM (Peptide antigen) [IgE 11]
Stabilization of MHC (L^d class I molecules): ++ (more than two fold is calculate as “++”)
Specific CTL activity induced by the peptide, L^d restricted [3]: induces antigen specific CTLs

Stabilization of MHC (L^d class I molecules): + (less than two-fold is scored as “+”)
Binding to L^d, in words (L^d class I molecules): weakly
Sequence: HSTIQLYCF (Peptide antigen) [IgE 114]

Sequence: TLTVTSTLPV (Peptide antigen) [IgE 884]
Specific Killing (x/N) [2]: 8/8

Sequence: WLEDGQVMDV (Peptide antigen) [IgE 883]
Specific Killing (x/N) [2]: 1/5

Sequence: TLACLIQNFM (Peptide antigen) [IgE 895]
Specific Killing (x/N) [2]: 3/4

Binding to / stabilization of D^b, in words (D^b class I molecules): strongly
Sequence: MSTVNFPAL (Peptide antigen) [IgE 44]
Specific CTL activity induced by the peptide, D^b restricted [1]: specifically lysed
Stabilization of MHC (D^b class I molecules): ++ (more than two fold is calculate as “++”)

Sequence: SLNGTTMTL [IgE 47]
Specific Killing (x/N) [2]: 7/8

Sequence: QVMDVDLSTA (Peptide antigen) [IgE 898]
Specific Killing (x/N) [2]: 3/4

Sequence: QMFTCRVAHT (Peptide antigen) [IgE 887]
Specific Killing (x/N) [2]: 1/4

Sequence: SLLTVSGAWA (Peptide antigen) [IgE 876]
Specific Killing (x/N) [2]: 0/5

Sequence: WLSDRTYTC (Peptide antigen) [IgE 185]
Specific Killing (x/N) [2]: 0/8

Binding to L^d, in words (L^d class I molecules): strongly
Binding to / stabilization of D^b, in words (D^b class I molecules; listed as IgE366): binds both L^d and D^b
Sequence: GSNQGFFIF (Peptide antigen) [IgE 366]
Specific CTL activity induced by the peptide, D^b restricted [1]: induce D^b restricted CTLs
Stabilization of MHC (L^d class I molecules): ++^c (more than two fold is calculate as “++”)
Binding to / stabilization of D^b, in words (D^b class I molecules): ^cIgE 366 also stabilizes D^b class I molecules.
Specific CTL activity induced by the peptide, L^d restricted [3]: inducing L^d restricted CTLs

Sequence: WVDNKTFSV [IgE 96]
Specific Killing (x/N) [2]: 3/8
